Results on one compound are retold here after US20240269151A1, “NASAL SLEEP FORMULATION” (CS MEDICA A/S, priority 2021, published 2024).

This assay can be described thus: Comparison of nasal sleep compositions formulated with type A or type B crystalline CBD. As to conditions: nasal sleep compositions differing only in the crystalline CBD used. Type of assay: in vivo. The protocol:
Two nasal sleep compositions are prepared as disclosed herein, such as according to Example 1, 5 and/or 7, the only difference being that the crystalline CBD used in the formulation is either of type A (needle-like crystals; FIG. 1) or type B (bunch/cluster-like; FIG. 2).
Type A crystalline CBD is sourced from Enecta, while type B CBD is sourced from Pharma Hemp. Further details can e.g. be found in the first aspect of the invention, such as Table 1.

`C=C(C)[C@@H]1CCC(C)=C[C@H]1c1c(O)cc(CCCCC)cc1O` [type A CBD, Cannabidiol]: the “Activity/potency of type A CBD versus type B CBD” value is “significantly more active than type B CBD”. Further, the “Activity/potency of type A CBD versus type B CBD” value (listed as CBD with a needle-like crystal structure) is “significantly more potent than CBD with a different crystal structure”.
